According to patent US20240018161A1, “MODULATORS OF CYSTIC FIBROSIS TRANSMEMBRANE CONDUCTANCE REGULATOR” (VERTEX PHARMACEUTICALS INCORPORATED, priority 2020, published 2024):
Like-named read-outs stand apart in the source and are kept apart here.

Key:
[1] = snar bond, 13-membered ring, NaH, DMF
[2] = target: CFTR-mediated chloride transport in human intestinal epithelial enteroid cells (Homo sapiens, UniProt P13569); assay: Membrane potential dye, Enteroid Assay A; type: cell-based; settings: Enteroid Assay A; for EC50: read-out: Ent. A EC50
Summary of the method: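 Membrane potential dye (20 μM methyl oxonol, with 30 μM CaCCinh-A01 and 30 μM Chicago Sky Blue) loaded 25 min at room temperature into ROCK-inhibitor-seeded human enteroid cells. Chloride-free stimulation buffer triggered transport, followed by 15 min fluorescence. % Activity relative to 3 μM/3 μM/300 nM triple-combination control.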

CFTR-mediated chloride transport in human intestinal epithelial enteroid cells, sequence (P13569 with tags, fused parts or gaps DEL508-508): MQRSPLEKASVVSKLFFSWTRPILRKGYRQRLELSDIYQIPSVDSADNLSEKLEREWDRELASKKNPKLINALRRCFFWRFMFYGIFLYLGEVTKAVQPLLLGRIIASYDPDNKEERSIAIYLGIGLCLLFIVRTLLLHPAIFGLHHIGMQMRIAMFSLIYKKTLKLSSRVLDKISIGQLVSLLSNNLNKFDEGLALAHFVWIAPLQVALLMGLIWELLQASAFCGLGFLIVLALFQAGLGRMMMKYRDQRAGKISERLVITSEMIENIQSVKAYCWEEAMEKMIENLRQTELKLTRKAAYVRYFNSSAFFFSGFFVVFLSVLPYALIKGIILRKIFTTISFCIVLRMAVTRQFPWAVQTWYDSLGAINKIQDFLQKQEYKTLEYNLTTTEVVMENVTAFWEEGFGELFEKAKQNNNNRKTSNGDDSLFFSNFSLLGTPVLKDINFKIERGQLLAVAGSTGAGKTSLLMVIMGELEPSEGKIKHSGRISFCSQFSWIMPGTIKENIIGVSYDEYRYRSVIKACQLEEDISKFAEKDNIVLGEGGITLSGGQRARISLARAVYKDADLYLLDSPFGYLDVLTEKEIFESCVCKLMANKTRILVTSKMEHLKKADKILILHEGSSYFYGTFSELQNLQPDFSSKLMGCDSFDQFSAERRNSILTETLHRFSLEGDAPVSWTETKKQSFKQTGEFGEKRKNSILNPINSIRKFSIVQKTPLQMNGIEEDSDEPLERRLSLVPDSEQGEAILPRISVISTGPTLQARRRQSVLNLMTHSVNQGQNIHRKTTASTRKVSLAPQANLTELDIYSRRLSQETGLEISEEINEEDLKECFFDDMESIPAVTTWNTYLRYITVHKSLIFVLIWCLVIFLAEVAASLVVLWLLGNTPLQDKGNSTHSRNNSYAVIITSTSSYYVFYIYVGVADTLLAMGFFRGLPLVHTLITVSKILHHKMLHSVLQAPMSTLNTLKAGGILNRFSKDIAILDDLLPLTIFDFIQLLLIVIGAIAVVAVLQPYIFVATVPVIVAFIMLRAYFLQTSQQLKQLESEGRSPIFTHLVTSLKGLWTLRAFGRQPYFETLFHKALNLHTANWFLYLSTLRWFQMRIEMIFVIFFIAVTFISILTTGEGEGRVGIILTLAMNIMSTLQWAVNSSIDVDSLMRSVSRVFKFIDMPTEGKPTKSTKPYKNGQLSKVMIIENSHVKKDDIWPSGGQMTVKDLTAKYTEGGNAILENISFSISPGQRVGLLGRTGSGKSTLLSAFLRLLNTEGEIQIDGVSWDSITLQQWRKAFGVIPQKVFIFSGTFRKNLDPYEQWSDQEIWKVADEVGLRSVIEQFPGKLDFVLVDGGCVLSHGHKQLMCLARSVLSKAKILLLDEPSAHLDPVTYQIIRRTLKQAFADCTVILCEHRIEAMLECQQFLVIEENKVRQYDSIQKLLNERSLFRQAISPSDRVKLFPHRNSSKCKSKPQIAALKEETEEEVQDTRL

Compound	Ent. A Max Activity (%) [2]	EC50 [2] [µM]	also measured
Cc1cccc(C)c1-c1cc2nc(n1)NS(=O)(=O)c1cccc(c1)C(=O)N1CCN(Cc3ccccc3)C[C@H](O2)[C@H]1CC(C)C [Compound 86, (16S,21R)-18-Benzyl-12-(2,6-dimethylphenyl)-21-(2-methylpropyl)-15-oxa-8λ^6-thia-1,9,11,18,22-pentaazatetracyclo[14.4.1.13,7.110,14]tricosa-3(23),4,6,10(22),11,13-hexaene-2,8,8-trione]	+++ (+++ is >600%)	< 1	ring closure, isolated yield ([1]; from Cc1cccc(C)c1-c1cc(Cl)nc(NS(=O)(=O)c2cccc(C(=O)N3CCN(Cc4ccccc4)C[C@@H](O)[C@H]3CC(C)C)c2)n1, 16.5 mM, 25.0 °C, 17.0 h): 5%
Cc1cccc(C)c1-c1cc2nc(n1)NS(=O)(=O)c1cccc(c1)C(=O)N1C[C@@H](CN(Cc3ccccc3)[C@@H](CC(C)C)C1)O2 [Compound 109, (16R,19S)-18-Benzyl-12-(2,6-dimethylphenyl)-19-(2-methylpropyl)-15-oxa-8λ^6-thia-1,9,11,18,22-pentaazatetracyclo[14.4.1.13,7.110,14]tricosa-3(23),4,6,10(22),11,13-hexaene-2,8,8-trione]	+++ (+++ is >600%)	< 1	ring closure, isolated yield ([1]; from Cc1cccc(C)c1-c1cc(Cl)nc(NS(=O)(=O)c2cccc(C(=O)N3CC(O)CN(Cc4ccccc4)[C@@H](CC(C)C)C3)c2)n1, 30.0 mM, 0.0 °C, 7.0 h): 28%
Cc1cccc(C)c1-c1cc2nc(n1)NS(=O)(=O)c1cccc(c1)C(=O)N1C[C@H](CN(Cc3ccccc3)[C@H](CC(C)C)C1)O2 [Compound 111, (16S,19R)-18-Benzyl-12-(2,6-dimethylphenyl)-19-(2-methylpropyl)-15-oxa-8λ^6-thia-1,9,11,18,22-pentaazatetracyclo[14.4.1.13,7.110,14]tricosa-3(23),4,6,10(22),11,13-hexaene-2,8,8-trione]	+ (+ is <30%)	–	ring closure, isolated yield ([1]; from Cc1cccc(C)c1-c1cc(Cl)nc(NS(=O)(=O)c2cccc(C(=O)N3C[C@@H](O)CN(Cc4ccccc4)[C@H](CC(C)C)C3)c2)n1, 28.6 mM, 4.6 h): 57%

More lines, main results first:

Ent. A Max Activity (%) [2]	EC50 [2] [µM]	Compound	also measured
++ (++ is 30-60%)	< 1	Cc1cccc(C)c1-c1cc2nc(n1)NS(=O)(=O)c1cccc(c1)C(=O)N1C[C@@H](CN(C(=O)OC(C)(C)C)C[C@@H]1CC(C)C)O2 [Compound 96, tert-Butyl (16S,20S)-12-(2,6-dimethylphenyl)-20-(2-methylpropyl)-2,8,8-trioxo-15-oxa-8λ^6-thia-1,9,11,18,22-pentaazatetracyclo[14.4.1.13,7.110,14]tricosa-3(23),4,6,10(22),11,13-hexaene-18-carboxylate]	ring closure, isolated yield ([1]; from Cc1cccc(C)c1-c1cc(Cl)nc(NS(=O)(=O)c2cccc(C(=O)N3C[C@H](O)CN(C(=O)OC(C)(C)C)C[C@@H]3CC(C)C)c2)n1, 29.2 mM, 25.0 °C, 5.08 h): 66%
+ (+ is <30%)	–	Cc1cccc(C)c1-c1cc2nc(n1)NS(=O)(=O)c1cccc(c1)C(=O)N1C[C@H](CN(C(=O)OC(C)(C)C)C[C@@H]1CC(C)C)O2 [Compound 100, tert-Butyl (16R,20S)-12-(2,6-dimethylphenyl)-20-(2-methylpropyl)-2,8,8-trioxo-15-oxa-8λ^6-thia-1,9,11,18,22-pentaazatetracyclo[14.4.1.13,7.110,14]tricosa-3(23),4,6,10(22),11,13-hexaene-18-carboxylate]	ring closure, isolated yield ([1]; from Cc1cccc(C)c1-c1cc(Cl)nc(NS(=O)(=O)c2cccc(C(=O)N3CC(O)CN(C(=O)OC(C)(C)C)C[C@@H]3CC(C)C)c2)n1, 31.2 mM, 25.0 °C, 3.08 h): 35%
++ (++ is 30-60%)	< 1	Cc1cccc(C)c1-c1cc2nc(n1)NS(=O)(=O)c1cccc(c1)C(=O)N1C[C@@H](CN(C(=O)OC(C)(C)C)C[C@H]1CC(C)C)O2 [Compound 102, tert-Butyl (16S,20R)-12-(2,6-dimethylphenyl)-20-(2-methylpropyl)-2,8,8-trioxo-15-oxa-8λ^6-thia-1,9,11,18,22-pentaazatetracyclo[14.4.1.13,7.110,14]tricosa-3(23),4,6,10(22),11,13-hexaene-18-carboxylate]	ring closure, isolated yield ([1]; from Cc1cccc(C)c1-c1cc(Cl)nc(NS(=O)(=O)c2cccc(C(=O)N3C[C@H](O)CN(C(=O)OC(C)(C)C)C[C@H]3CC(C)C)c2)n1, 30.8 mM, 4.17 h): 34%
+ (+ is <30%)	–	Cc1cccc(C)c1-c1cc2nc(n1)NS(=O)(=O)c1cccc(c1)C(=O)N1C[C@H](CN(C(=O)OC(C)(C)C)C[C@H]1CC(C)C)O2 [Compound 106, tert-Butyl (16R,20R)-12-(2,6-dimethylphenyl)-20-(2-methylpropyl)-2,8,8-trioxo-15-oxa-8λ^6-thia-1,9,11,18,22-pentaazatetracyclo[14.4.1.13,7.110,14]tricosa-3(23),4,6,10(22),11,13-hexaene-18-carboxylate]	ring closure, isolated yield ([1]; from Cc1cccc(C)c1-c1cc(Cl)nc(NS(=O)(=O)c2cccc(C(=O)N3C[C@@H](O)CN(C(=O)OC(C)(C)C)C[C@H]3CC(C)C)c2)n1, 31.3 mM, 2.17 h): 45%
